We go through ten molecules from patent US20230323358A1, “COMPOSITION AND USE OF siRNAs AGAINST VEGFR2 AND TGF-BETA1 IN COMBINATION THERAPY FOR CANCER” (Sirnaomics, Inc., priority 2021, published 2023).

Like-named read-outs stand apart in the source and are kept apart here. Oligonucleotides are written 5' to 3', each unit as a sugar letter and its base; * is a phosphorothioate linkage, no mark a phosphodiester; rarer units and linkages stand in square brackets, end groups in braces. Plain capitals give the bases only. {P} = phosphate; d = 2'-deoxy (DNA); m = 2'-O-methyl; r = 2'-OH (RNA); f = 2'-fluoro

The subject of one data set is B 16-F0 cells. The experiment in a line: In vivo pharmacodynamics on melanoma (B16) in immunocompetent mouse model. The note with it: positive control, 4 mg/kg i.p. QW. On the procedure: The STP355 drug used in this example is the STP355 drug prepared in Example 9. C57BL/6J mice were inoculated with B 16-F0 cells subcutaneously on the back, inoculation volume: 1×10^6/100 µL/mice, 50 mice were inoculated, location: the right back of the mice. The average tumor volume was 80~100 mm^3 and started to be administered in groups. The dose of 2 mg/kg was administered intravenously, twice a week, for a total of 8 administrations, and the positive control group was administered with cisplatin, […], A total of 8 doses were administered.

The subject of data set [1] is TGF-β1. In words: EC50 of TGF-β1 siRNA candidates before and after modification, knockdown in cells. Format: cell-based, human. The procedure:
DLD-1, RKO, U87-MG and PANC-1 cells were seeded into 24-well cell plates (1 × 10^5/well), and then siRNAs (21mer or negative control) were transfected with commercial transfection reagent (lipo2000). The siRNA transfection concentration was 100 nM. Untreated cells were set as a blank control. Total RNA was extracted from cells 24 h after transfection. Reverse transcription was performed using the kit to obtain cDNA according to the manufacturer’s instructions. Relative levels of target gene TGF- β1 mRNA expression were determined by real-time PCR, normalized to the housekeeping gene β-actin. Gene knockdown effectiveness was expressed as a percentage of the blank control. […] Therefore, TF1-21-hm3# and TF1-21-hm6# were selected as candidate sequences, and these two sequences were modified (see Table 4 for modified sequences).
The EC50 of candidate sequences before and after modification in different cells (U87-MG, DLD-1, SK-Hep-1, BxPC3, A549, HUCCT, PANC-1 and RKO) were compared. U87-MG, DLD-1, SK-Hep-1, BxPC3, A549, HUCCT, PANC-1 and RKO cells were seeded in 24-well cell plates (1 × 10^5/well) and transfected with multiple concentration gradients in different cells for siRNA candidates (modified or unmodified), use the same procedure as for primary screening. Finally, the data were plotted using the software GraphPad Prism8 and EC50 values were calculated.

Data set [2] concerns TGF-β1. The description is as above. Format: cell-based. The note with it: 293T cells, homo, 24h, 24well (second TGF-β1 table).
For a further data set, the system named is MC38-hPDL1 cells. In words: In vivo pharmacodynamics on humanized PDL1 locus colorectal cancer tumors (MC38-hPDL1) in immunocompetent mice. Details: species or system C57BL/6J mice. The note with it: positive control 4mpk, BIW*4W, I.P. On the procedure: The STP355 drug used in this example is the STP355 drug prepared in Example 9. C57BL/6J mice were subcutaneously inoculated with humanized PDL1 locus colorectal cancer tumor MC38-hPDL1 cells on the back, inoculation volume: 1×10^6/100 µL/mouse, inoculation location: above the right thigh of the mouse. When the average tumor volume reached 100 mm^3, group administration was started, divided into 4 groups, 8 animals/group. In this experiment, the doses of 4 mg/kg and 6 mg/kg were tested, and a model group was established, and the positive control group Tecentrip (atezolizumab) . The drug was administered twice a week for a total of 8 times. On the 0th, 3rd, 7th, 10th, 14th, 17th, 21st, 24th and 28th days, the tumor volume was measured with a vernier caliper, and the tumor growth inhibition rate TGI% was calculated according to the formula.
Calculation formula: TGI % = [1-(Ti-T0)/ (Vi-V0)] ×100%. • Ti represents the mean tumor volume of the treatment group at a certain time point, • T0 represents the mean tumor volume of the treatment group on day 0, • Vi represents the mean tumor volume of the model group at the same time point as Ti, • V0 represents the mean tumor volume of the model group at day 0.

The mark [3] stands for this setting: A549 cells, homo, 24 h, 24well (Table 6), read-out: EC50 (nM, 24 h, 24well) A549.
Where [4] appears, read: A549 cells, homo, 24h, 24well (second TGF-β1 table), read-out: EC50 (24h, nM, 24well) A549.
[5] abbreviates: BxPC3 cells, homo, 24 h, 24well (Table 6), read-out: EC50 (nM, 24 h, 24well) BxPC3.
Setting [6] is: DLD-1 cells, Homo, 24h, 24well (second TGF-β1 table), read-out: EC50 (24h, nM, 24well) DLD-1.
[7] abbreviates: DLD-1 cells, homo, 24 h, 24well (Table 6), read-out: EC50 (nM, 24 h, 24well) DLD-1.
Where [8] appears, read: Hucct cells, homo, 24 h, 24well (Table 6), read-out: EC50 (nM, 24 h, 24well) Hucct.
Where [9] appears, read: Hucct cells, homo, 24h, 24well (second TGF-β1 table), read-out: EC50 (24h, nM, 24well) Hucct.
Setting [10] is: PANC-1 cells, homo, 24 h, 24well (Table 6), read-out: EC50 (nM, 24 h, 24well) PANC-1.
[11] abbreviates: PANC-1 cells, homo, 24h, 24well (second TGF-β1 table), read-out: EC50 (24h, nM, 24well) PANC -1.
Where [12] appears, read: RKO cells, homo, 24 h, 24well (Table 6), read-out: EC50 (nM, 24 h, 24well) RKO.
The mark [13] stands for this setting: RKO cells, homo, 24h, 24well (second TGF-β1 table), read-out: EC50 (24h, nM, 24well) RKO.
Setting [14] is: SK-Hep1 cells, homo, 24 h, 24well (Table 6), read-out: EC50 (nM, 24 h, 24well) SK-Hep1.
[15] abbreviates: U87MG cells, homo, 24 h, 24well (Table 6), read-out: EC50 (nM, 24 h, 24well) U87MG.
The mark [16] stands for this setting: U87MG cells, homo, 24h, 24well (second TGF-β1 table), read-out: EC50 (24h, nM, 24well) U87M G.
The mark [17] stands for this setting: SK-Hep 1 cells, homo, 24h, 24well (second TGF-β1 table), read-out: EC50 (24h, nM, 24well) SK-Hep 1.

`N.N.[Cl][Pt][Cl]` [cisplatin]: the anti-tumor effect result in the data set on B 16-F0 cells is listed as “significant anti-tumor effects”.
As for “TF1-21-hm3#: siRNA targeting TGF-β1 mRNA; sense SEQ ID 23, antisense SEQ ID 33 (sense AACUAUUGCUUCAGCUCCATT; antisense UGGAGCUGAAGCAAUAGUUTT; sugars from the 5' end r19 d2, backbone not given here)”, the EC50 in the data set with TGF-β1 [1] (setting [3]) was found to be 1.36 nM; in the data set with TGF-β1 [1] (setting [4]), 1.4 nM; with TGF-β1 [1] (setting [5]), 0.25 nM; with TGF-β1 [1] (BxPC 3 cells, homo, 24h, 24well (second TGF-β1 table), read-out: EC50 (24h, nM, 24well) BxPC 3) it was 11.9 nM; with TGF-β1 [1] (setting [6]) it was 0.2 nM; in the data set with TGF-β1 [1] (setting [7]), 0.15 nM. Also, the EC50 in the data set with TGF-β1 [1] (setting [8]) turned out to be 0.03 nM; in the data set on TGF-β1 [1] (setting [9]) it was 0.029 nM; in the data set on TGF-β1 [1] (setting [10]), 6.65 nM; in the data set on TGF-β1 [1] (setting [11]) it was 6.6 nM; with TGF-β1 [1] (setting [12]), 0.1 nM; with TGF-β1 [1] (setting [13]), 0.1 nM. In addition, the results for the EC50 in the data set with TGF-β1 [1] (setting [14]), in the data set on TGF-β1 [1] (setting [15]) and with TGF-β1 [1] (setting [16]) were 3.16 nM, 0.29 nM and 0.3 nM, respectively.
As to “TF1-21-hm3#mod: Modified (2′F, 2′OME, phosphorylation) siRNA targeting TGF-β1; sense SEQ ID 147, antisense SEQ ID 151 (sense mAmAmCmUmAmUfUfGfCmUmUmCmAmGmCmUmCmCmAdTdT; antisense {P}-mUfGmGmAmGmCmUmGmAmAmGmCmAfAmUmAmGmUmUdTdT)”, the EC50 in the data set with TGF-β1 [1] (setting [3]) is 0.04 nM; in the data set with TGF-β1 [1] (setting [4]), 0.04 nM; with TGF-β1 [1] (setting [5]), 0.17 nM; in the data set with TGF-β1 [1] (setting [7]), 0.02 nM; with TGF-β1 [1] (setting [10]), 0.02 nM; in the data set with TGF-β1 [1] (setting [12]), 0.08 nM. Further, the concentration for a half-maximal effect (EC50) in the data set with TGF-β1 [1] (setting [13]) amounted to 0.08 nM; with TGF-β1 [1] (setting [14]), 2.64 nM; with TGF-β1 [1] (setting [15]), 1.48 nM.
Regarding “TF1-21-hm6#: siRNA targeting TGF-β1 mRNA; sense SEQ ID 26, antisense SEQ ID 36 (sense CGGCAGCUGUACAUUGACUTT; antisense AGUCAAUGUACAGCUGCCGTT; sugars from the 5' end r19 d2, backbone not given here)”, the EC50 with TGF-β1 [1] (setting [3]) turned out to be 3.02 nM; in the data set with TGF-β1 [1] (setting [4]) it was 3 nM; with TGF-β1 [1] (setting [5]) it was 0.03 nM; in the data set on TGF-β1 [1] (setting [6]), 0.9 nM; in the data set on TGF-β1 [1] (setting [7]), 0.85 nM; in the data set with TGF-β1 [1] (setting [8]), 0.01 nM. Besides, the concentration for a half-maximal effect (EC50) with TGF-β1 [1] (setting [9]) stood at 0.007 nM; in the data set with TGF-β1 [1] (setting [10]), 12.7 nM; in the data set with TGF-β1 [1] (setting [11]), 12.7 nM; in the data set with TGF-β1 [1] (setting [12]), 0.05 nM; with TGF-β1 [1] (setting [13]) it was 0.048 nM; in the data set with TGF-β1 [1] (setting [14]), 0.22 nM. Besides, the EC50 in the data set with TGF-β1 [1] (setting [15]) came to 0.12 nM; in the data set on TGF-β1 [1] (setting [16]) it was 0.1 nM; with TGF-β1 [2] it was 0.11 nM.
In the case of “TF1-21-hm6#mod: Modified (2′F, 2′OME, phosphorylation) siRNA targeting TGF-β1; sense SEQ ID 148, antisense SEQ ID 152 (sense mCmGmGmCmAmGfCfUfGmUmAmCmAmUmUmGmAmCmUdTdT; antisense {P}-mAfGmUmCmAmAmUmGmUmAmCmAmGfCmUmGmCmCmGdTdT)”, the EC50 in the data set on TGF-β1 [1] (setting [3]) was 0.22 nM; with TGF-β1 [1] (setting [5]), 0.01 nM; with TGF-β1 [1] (setting [12]) it was 0.04 nM; with TGF-β1 [1] (setting [14]), 0.59 nM; with TGF-β1 [1] (setting [15]), 0.09 nM; in the data set with TGF-β1 [2], 0.1 nM.
As to “TF1-21-hm7#: siRNA targeting TGF-β1 mRNA; sense SEQ ID 27, antisense SEQ ID 37 (sense GGCAGCUGUACAUUGACUUTT; antisense AAGUCAAUGUACAGCUGCCTT; sugars from the 5' end r19 d2, backbone not given here)”, the EC50 was found to be 0.1 nM with TGF-β1 [1] (setting [4]); 0.7 nM with TGF-β1 [1] (setting [6]); 0.031 nM in the data set on TGF-β1 [1] (setting [9]); 12 nM with TGF-β1 [1] (setting [11]); 0.1 nM in the data set with TGF-β1 [1] (setting [13]); 0.6 nM in the data set on TGF-β1 [1] (setting [16]).
“TF1-20190711-1#: siRNA targeting TGF-β1 mRNA; sense SEQ ID 1, antisense SEQ ID 2 (sense GCAGAGUACACACAGCAUATT; antisense UAUGCUGUGUGUACUCUGCTT; sugars from the 5' end r19 d2, backbone not given here)”: the EC50 came to 0.002 nM in the data set with TGF-β1 [1] (setting [9]), 1.6 nM in the data set on TGF-β1 [1] (setting [17]) and 0.08 nM in the data set with TGF-β1 [2].
For “TF1-20190711-1#mod: Modified siRNA targeting TGF-β1; sense SEQ ID 149, antisense SEQ ID 153 (sense GCAGAGUACACACAGCAUATT; antisense UAUGCUGUGUGUACUCUGCTT; sense: sugars from the 5' end m6 f3 m10 d2, backbone not given here; antisense: sugars from the 5' end mfmmmmmmmmmmmfmmmmmdd, 5' {P}, backbone not given here)”, in the data set with TGF-β1 [2], a half-maximal response (EC50) required 0.25 nM.
For “TF1-20190711-5#: siRNA targeting TGF-β1 mRNA; sense SEQ ID 9, antisense SEQ ID 10 (sense GAGUACACACAGCAUAUAUTT; antisense AUAUAUGCUGUGUGUACUCTT; sugars from the 5' end r19 d2, backbone not given here)”, the EC50 with TGF-β1 [1] (setting [17]) is 9.8 nM.
In the case of atezolizumab [Tecentrip], the “tumor weight versus model group” value in the data set on MC38-hPDL1 cells is given as “significantly lower than the model group”. In the data set on MC38-hPDL1 cells (day 7 to day 28), the “tumor volume versus model control group” value is recorded as “significantly smaller than that of the model control group”.
